The source of these data is ChEMBL document CHEMBL1128631, “Photoinduced electron transfer for pyrenesulfonamide conjugates of tryptophan-containing peptides. Mitigation of fluoroprobe behavior in N-terminal labeling experiments” (Bioorg Med Chem Lett, 1995).

Each structure is given as a SMILES string.

Common to all, as to type: ADME
Data set [1] is described as follows: Life-time was measured in the presence of DMF solvent (t = weighted average of two lifetimes from biexponential decay).
Data set [2] is described as follows: Life-time was measured in the presence of methyl cyanide solvent (t = weighted average of two lifetimes from biexponential decay).
A short description of data set [3]: Half-life time was measured in the presence of methyl cyanide solvent.

`CCOC(=O)[C@H](Cc1c[nH]c2ccccc12)NC(=O)[C@H](C)NC(=O)[C@H](C)NS(=O)(=O)c1ccc2ccc3cccc4ccc1c2c34`: the t in data set [1] was found to be 1.3 ns; in data set [2], 3.1 ns.

Consider `CCOC(=O)[C@H](Cc1c[nH]c2ccccc12)NC(=O)[C@H](C)NS(=O)(=O)c1ccc2ccc3cccc4ccc1c2c34`, for which the t worked out at 0.5 ns in data set [1] and 0.76 ns in data set [2].

Consider `CCOC(=O)[C@H](Cc1c[nH]c2ccccc12)NC(=O)[C@H](C)NS(=O)(=O)c1ccc2ccc3ccc([N+](=O)[O-])c4ccc1c2c34`, for which, in data set [3], the T1/2 was determined as 0.4 us.

On to `CCOC(=O)[C@H](C)NS(=O)(=O)c1ccc2ccc3ccc([N+](=O)[O-])c4ccc1c2c34`, for which, in data set [3], the T1/2 is recorded as 12 us.

As to `CCOC(=O)[C@H](Cc1c[nH]c2ccccc12)NS(=O)(=O)c1ccc2ccc3cccc4ccc1c2c34`, the values for the t in data set [1] and in data set [2] were 0.32 ns and 0.79 ns, respectively.

Take `CCOC(=O)[C@H](Cc1c[nH]c2ccccc12)NC(=O)[C@H](C)NC(=O)[C@H](C)NS(=O)(=O)c1ccc2ccc3ccc([N+](=O)[O-])c4ccc1c2c34`: the T1/2 in data set [3] is reported as 0.16 us.
